Test system: PRCV
Test: PRCV infection of porcine intestinal organoids (monolayer, apical-out)
Format: cell-based, porcine respiratory coronavirus
Details: monolayer 24 h; apical-out 1 MOI, 48 h; IFA, RT-qPCR, TCID50, western blot
Method: Fig 2 PM restricts TGEV and PRCV infection in porcine intestinal organoids. (A) Intestinal organoids cultured in 96-well plate were incubated with different concentrations of PM for 24 h, which was tested by Cell Counting Kit 8. (B and C) The intestinal organoids monolayer was treated with indicated PM and infected with TGEV Miller (0.1 MOI) for 24 h, which was measured by IFA (B), scale bar: 50 µm, RT-qPCR, TCID50, and western blot (C). (D) Apical-out intestinal organoids were treated with indicated PM and infected TGEV Miller (1 MOI) for 48 h, which was determined by RT-qPCR, TCID50, and western blot. (E and F) The intestinal organoids monolayer was treated with different concentrations of PM and infected with PRCV for 24 h, which was determined by IFA (E), scale bar: 50 µm, RT-qPCR, TCID50, and western blot (F). (G) Apical-out intestinal organoids were treated with indicated PM and infected PRCV (1 MOI) for 48 h, which was detected by RT-qPCR, TCID50, and western blot. Results are presented as mean ± SD of data from three independent experiments. **, P ≤ 0.01; ***, P ≤ 0.001.
Porcine 3D ileum organoids coated with Matrigel for 1 week were dissociated by incubation in 5 mM cold EDTA buffer on a rotating platform for 1 h at 4°C. […]

With `[K+].[K+].[O]=[Mo](=[O])([O-])[O-]` [PM, potassium molybdate] the “PRCV infection in organoid monolayer and apical-out organoids” value was “the same phenotypes were found”.

Reference: PMC11784013, “Potassium molybdate blocks APN-dependent coronavirus entry by degrading receptor via PIK3C3-mediated autophagy” (Journal of Virology, 2024)
